Assays:
Smad 1/5/8 activity = assay: BRE-luciferase reporter assay; format: cell-based; conditions: H1299 cells; 10 μM Dorsomorphin or 1 μM DMH1, DMH2, LDN; 48 hours; vs DMSO
Description: Luciferase Assays. 10^6 H1299 cells were transfected with 2 μg of BRE-luciferace plasmid using a Nucleofector II. […] Cells were lysed with luciferase lysis buffer (Promega). Samples were added to luciferase assay substrate (Promega) and luminsescence measured by the TD-20/20 Luminometer (Turner Designs/Turner BioSystems, Sunnyvale, Calif.). Control samples included luciferase assay substrate alone and luciferase assay substrate plus 1× reporter lysis buffer.

[1] = test system: phosphorylated Smad 1/5/8; assay: Western blot for phosphorylated Smad 1/5/8; format: cell-based; conditions: for level of phosphorylated Smad 1/5/8 expression: lung cancer cell lines (H1299, A549)
Description: (§1) Western Blot Analysis. Total cellular protein was prepared using RIPA buffer containing a protease inhibitor cocktail and protein concentration was measured using the BCA assay as described. In brief, protein was analyzed by SDS-PAGE, transferred to nitrocellulose (Schleicher and Schuell, Keene, N.H.). After blocking, the blots were incubated overnight at 4° C. with the appropriate primary antibody in Tris-buffered saline with 1% Tween (TBST) and 5% non-fat milk. Secondary antibodies were applied for 1 hour at room temperature. Specific proteins were detected using the enhanced chemiluminescence system (Amersham, Arlington Heights, Ill.). The primary antibodies that were used were rabbit monoclonal anti-pSmad 1/5/8 (Cell signaling Technology, Danvers Mass.) rabbit anti-actin, an affinity isolated antigen specific antibody (Sigma, Saint Louis, Mo.), rabbit monoclonal anti-Id1 and rabbit monoclonal anti-Id3 (Calbioreagents, San Mateo, Calif.).

Id1 and Id3 protein = assay: Western blot for Id1 and Id3; format: cell-based; conditions: for protein levels of Id1 and Id3: A549 and H1299 cells
Description: as §1

[2] = test system: constitutively active alk6 (ca-alk6); assay: BRE-luciferase with constitutively active alk6 in H1299 cells; format: cell-based; conditions: 1 μM antagonist
Description: (§2) To assess the effects of antagonists on a specific type I BMP receptor, 2 μg of constitutively active ca-alk3 and ca-alk6 expression vectors were co-transfected with the BRE-luciferase reporter into H1299 cells with Nucleofector II. Control cells were co-transfected with the pcDNA3 expression vector. After 48 hours the cells were treated with DMSO or a BMP receptor antagonist for 48 hours and luminescence was measured.

A549 cells [3] = assay: Cell counts after 7 days; format: cell-based; conditions: DMEM 5% FCS, 10 μM Dorsomorphin or 1 μM DMH1, DMH2, LDN
Description: (§3) Cell Counts. A549 and H1299 cells were plated into 6 well plates with 100,000 cells per well. Cells were treated with DMSO or a BMP receptor antagonist for 7 days. The cells were detached with trypsin, stained with trypan blue, and the number of live cells counted using a hemacytometer.

H1299 cells [4] = assay: Cell counts after 7 days; format: cell-based; conditions: H1299, DMEM 5% FCS, 10 μM Dorsomorphin or 1 μM DMH1, DMH2, LDN
Description: as §3

A549 cells [5] = assay: Clonogenic growth assay; format: cell-based; conditions: 1 μM, 2 weeks
Description: (§4) Clonigenic Growth Assay. A549 and H1299 cells were plated into 6 well plates with 500 cells per well. The next day the cells were treated with DMSO or a BMP receptor antagonist for 2 weeks. The colonies were stained with Diff-Quick (IMEB Inc. San Marcos, Calif.) and the total number of colonies per well counted.

H1299 cells [6] = assay: Clonogenic growth assay; format: cell-based; conditions: 1 μM, 2 weeks
Description: as §4

alk2 = biological target: T1, alk2 (Mus musculus, UniProt P37172); conditions: reported [26]; cited from earlier work
T1 construct: host or cells: C2C12
T1 sequence (P37172 21-509): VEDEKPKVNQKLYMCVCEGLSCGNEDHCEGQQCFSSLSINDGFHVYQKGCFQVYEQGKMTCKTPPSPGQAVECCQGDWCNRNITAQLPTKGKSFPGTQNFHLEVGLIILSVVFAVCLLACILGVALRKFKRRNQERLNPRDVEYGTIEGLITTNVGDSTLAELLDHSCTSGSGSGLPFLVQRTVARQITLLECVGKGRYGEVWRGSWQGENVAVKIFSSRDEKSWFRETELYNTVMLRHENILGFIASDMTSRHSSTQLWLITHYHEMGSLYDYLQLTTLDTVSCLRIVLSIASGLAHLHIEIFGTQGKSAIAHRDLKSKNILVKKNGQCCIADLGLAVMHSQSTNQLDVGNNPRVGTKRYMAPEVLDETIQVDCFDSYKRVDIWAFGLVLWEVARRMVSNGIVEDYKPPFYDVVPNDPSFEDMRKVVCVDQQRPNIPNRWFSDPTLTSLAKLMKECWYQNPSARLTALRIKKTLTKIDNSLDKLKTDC

alk3 = biological target: T2, alk3 (Mus musculus, UniProt P36895); conditions: reported [26]; cited from earlier work
T2 construct: host or cells: C2C12
T2 sequence (P36895 24-532): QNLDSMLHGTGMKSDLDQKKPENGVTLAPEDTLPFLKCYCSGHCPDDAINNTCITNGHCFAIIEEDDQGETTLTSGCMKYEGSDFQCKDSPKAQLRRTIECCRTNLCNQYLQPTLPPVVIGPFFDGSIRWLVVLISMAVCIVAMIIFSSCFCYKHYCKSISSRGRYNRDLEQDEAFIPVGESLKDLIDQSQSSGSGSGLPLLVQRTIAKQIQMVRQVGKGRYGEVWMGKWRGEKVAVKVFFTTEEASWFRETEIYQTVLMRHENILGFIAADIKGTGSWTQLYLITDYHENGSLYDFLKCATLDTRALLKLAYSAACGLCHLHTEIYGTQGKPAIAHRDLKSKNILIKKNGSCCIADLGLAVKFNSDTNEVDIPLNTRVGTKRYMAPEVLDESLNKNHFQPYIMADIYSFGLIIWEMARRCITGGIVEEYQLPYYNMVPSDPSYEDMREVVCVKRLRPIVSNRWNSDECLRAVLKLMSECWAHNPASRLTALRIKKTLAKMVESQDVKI

alk6 = biological target: T3, alk6 (Mus musculus, UniProt P36898); conditions: reported [26]; cited from earlier work
T3 construct: host or cells: C2C12
T3 sequence (P36898 14-502): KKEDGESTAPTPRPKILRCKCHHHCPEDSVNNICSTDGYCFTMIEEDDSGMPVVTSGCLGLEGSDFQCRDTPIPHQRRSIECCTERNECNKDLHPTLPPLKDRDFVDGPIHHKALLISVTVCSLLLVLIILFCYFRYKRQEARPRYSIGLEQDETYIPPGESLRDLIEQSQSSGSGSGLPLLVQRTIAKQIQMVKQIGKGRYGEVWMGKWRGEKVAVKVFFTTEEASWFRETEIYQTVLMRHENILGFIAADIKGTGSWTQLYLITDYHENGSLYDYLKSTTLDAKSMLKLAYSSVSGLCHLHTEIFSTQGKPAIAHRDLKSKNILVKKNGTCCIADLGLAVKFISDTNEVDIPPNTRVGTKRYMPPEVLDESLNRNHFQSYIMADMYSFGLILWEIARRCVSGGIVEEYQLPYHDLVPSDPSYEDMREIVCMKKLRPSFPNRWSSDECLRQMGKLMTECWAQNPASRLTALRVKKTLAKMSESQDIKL

AMP kinase = conditions: compared with Dorsomorphin and LDN; cited from earlier work
[7] = test system: Id1, Id2, and Id3 expression; assay: Quantitative RT-PCR for Id family members; format: cell-based; conditions: A549 and H1299 cell lines; 10 μM Dorsomorphin, 1 μM DMH1 or DMH2; 48 hours
Description: Quantification of Gene Expression. RNA was extracted using the RNeasy kit as per the manufacturer's instructions (Qiagen, Valencia, Calif.). DNAase was used to remove any DNA contamination. cDNA was generated using Advantage RT for PCR kit (BD BiosciencesClontech, Palo Alto, Calif.). Quantitative PCR was performed with the Stratagene Mx3005p (Agilent Technologies) and predesigned validated Taq-Man gene expression assays according to the manufacturer's specifications (Applied Biosystems, Foster City, Calif.). Reference numbers used are: GAPDH (Hs99999905_m1), ACVRL1 (alk1) (Hs00163543_m1), ACVR1A (alk2) (Hs00153836_m1), BMR1A (alk3) (Hs00831730_s1), BMPR1B (alk6) (Hs00176144_m1), Id1 (Hs00357821_g1), Id2 (Hs00747379_m1), and Id3 (Hs00171409-m1). Negative control included all reagents except cDNA. Expression was normalized to GAPDH using the formula […].

[8] = biological target: T4, constitutively active alk3 (ca-alk3) (Homo sapiens, UniProt P36894, Q233D); assay: BRE-luciferase with constitutively active alk3 in H1299 cells; format: cell-based; conditions: 1 μM antagonist
T4 construct: expressed in transfected cells; host or cells: H1299
T4 sequence (P36894 24-532 Q233D): as the sequence (P36895 24-532) above, with L16S, P21S, T74A, V133L, V142I, G164R, Q210D, I373V counted along it
Description: as §2

A549 cells [9] = assay: Soft agar assay (anchorage independent growth); format: cell-based; conditions: A549 in soft agar; 1 μM; 2 weeks
Description: (§5) Soft Agar Assay. A 1% agar mixture was prepared in sterile double-distilled water, microwaved, and cooled to 40° C. in a water bath. DMEM was also incubated at 40° C. Equal amounts of each were mixed and 1 ml added to each well of a six well plate. The base agar was allowed to solidify. A 0.7% agar mixture was prepared then cooled to 40° degrees. Cells were trypsinized and counted. Cells (2500 cells per well) were placed in pre-warmed DMEM containing DMSO or DMH1 […]. The treated cells were then mixed with the 0.7% agar and 2 ml placed on top of the base agar. Once solidified, 1 ml of DMEM was placed on top of the agar. […]

H1299 cells [10] = assay: Soft agar assay (anchorage independent growth); format: cell-based; conditions: H1299 in soft agar; 1 μM; 2 weeks
Description: as §5

A549 cells [11] = assay: Ethidium bromide uptake cell death assay; format: cell-based; conditions: 48 hours, 10 μM Dorsomorphin or 1 μM selective antagonist
Description: Cell Death Assay: A549 and H1299 cells were plated in 6 well plates with 10^6 cells per well. Cells were treated with DMSO or a BMP receptor antagonist for 12 and 48 hours. Adherent and floating cells were harvested and incubated with 0.1 mg/ml of ethidium bromide. Immediately after staining approximately 100 cells were counted and the percentage of cells that took up ethidium bromide was determined.

VEGF II = VEGF II (Homo sapiens, UniProt P35968); conditions: compared with Dorsomorphin and LDN; cited from earlier work
Sequence of VEGF II (P35968 20-1356): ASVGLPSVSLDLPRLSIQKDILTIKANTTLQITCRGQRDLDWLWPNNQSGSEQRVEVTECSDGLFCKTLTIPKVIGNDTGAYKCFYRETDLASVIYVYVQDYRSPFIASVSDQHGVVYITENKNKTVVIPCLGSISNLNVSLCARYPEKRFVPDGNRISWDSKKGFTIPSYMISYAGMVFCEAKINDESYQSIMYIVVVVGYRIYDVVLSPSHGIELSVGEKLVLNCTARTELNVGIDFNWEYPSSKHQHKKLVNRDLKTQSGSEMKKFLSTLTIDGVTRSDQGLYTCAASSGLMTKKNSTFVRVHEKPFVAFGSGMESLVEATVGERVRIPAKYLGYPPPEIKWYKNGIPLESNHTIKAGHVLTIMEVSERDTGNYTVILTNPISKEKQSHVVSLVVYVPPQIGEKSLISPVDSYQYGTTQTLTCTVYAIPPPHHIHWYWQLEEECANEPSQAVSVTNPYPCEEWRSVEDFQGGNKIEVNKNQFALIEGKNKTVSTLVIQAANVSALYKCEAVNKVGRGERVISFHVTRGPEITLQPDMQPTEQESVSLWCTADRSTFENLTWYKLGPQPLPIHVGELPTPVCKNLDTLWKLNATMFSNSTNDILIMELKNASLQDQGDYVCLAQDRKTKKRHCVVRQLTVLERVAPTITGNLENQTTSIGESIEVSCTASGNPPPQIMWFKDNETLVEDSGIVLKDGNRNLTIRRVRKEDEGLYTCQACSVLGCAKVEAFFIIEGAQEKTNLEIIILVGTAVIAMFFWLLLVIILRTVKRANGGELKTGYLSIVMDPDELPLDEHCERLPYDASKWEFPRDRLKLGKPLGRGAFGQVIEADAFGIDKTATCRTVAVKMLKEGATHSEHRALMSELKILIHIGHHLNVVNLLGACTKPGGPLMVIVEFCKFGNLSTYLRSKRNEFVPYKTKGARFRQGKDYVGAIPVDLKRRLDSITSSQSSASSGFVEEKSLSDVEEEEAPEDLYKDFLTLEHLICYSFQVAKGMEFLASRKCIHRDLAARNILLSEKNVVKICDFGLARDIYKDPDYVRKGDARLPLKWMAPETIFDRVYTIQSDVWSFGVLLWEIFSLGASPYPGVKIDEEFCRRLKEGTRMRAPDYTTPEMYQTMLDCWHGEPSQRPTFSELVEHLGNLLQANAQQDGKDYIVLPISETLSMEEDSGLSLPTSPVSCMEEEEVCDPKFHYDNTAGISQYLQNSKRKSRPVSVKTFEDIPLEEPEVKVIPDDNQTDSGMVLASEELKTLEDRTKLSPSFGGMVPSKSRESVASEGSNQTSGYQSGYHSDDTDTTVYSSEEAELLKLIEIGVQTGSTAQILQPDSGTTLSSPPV

TGFβ receptor alk5 = biological target: T5, TGFβ receptor alk5 (Homo sapiens, UniProt P36897); conditions: compared with Dorsomorphin and LDN; cited from earlier work
T5 sequence (P36897 34-503): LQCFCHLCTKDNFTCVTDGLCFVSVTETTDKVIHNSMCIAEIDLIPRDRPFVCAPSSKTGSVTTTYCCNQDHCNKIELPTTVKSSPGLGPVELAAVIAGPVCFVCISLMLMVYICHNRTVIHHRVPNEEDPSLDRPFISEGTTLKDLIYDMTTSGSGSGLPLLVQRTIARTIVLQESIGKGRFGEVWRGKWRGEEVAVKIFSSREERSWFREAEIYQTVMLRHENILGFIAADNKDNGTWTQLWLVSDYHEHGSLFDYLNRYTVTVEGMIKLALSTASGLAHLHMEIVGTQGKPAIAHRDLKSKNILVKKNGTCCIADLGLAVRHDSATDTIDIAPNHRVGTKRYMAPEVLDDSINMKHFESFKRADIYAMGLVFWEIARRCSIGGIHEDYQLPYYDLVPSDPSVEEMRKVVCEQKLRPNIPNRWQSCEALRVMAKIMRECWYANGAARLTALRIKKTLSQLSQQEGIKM

[12] = biological target: platelet-derived growth factor receptor-β (Homo sapiens, UniProt P09619); conditions: compared with Dorsomorphin and LDN; cited from earlier work
Sequence of platelet-derived growth factor receptor-β (P09619 33-1106, species assumed): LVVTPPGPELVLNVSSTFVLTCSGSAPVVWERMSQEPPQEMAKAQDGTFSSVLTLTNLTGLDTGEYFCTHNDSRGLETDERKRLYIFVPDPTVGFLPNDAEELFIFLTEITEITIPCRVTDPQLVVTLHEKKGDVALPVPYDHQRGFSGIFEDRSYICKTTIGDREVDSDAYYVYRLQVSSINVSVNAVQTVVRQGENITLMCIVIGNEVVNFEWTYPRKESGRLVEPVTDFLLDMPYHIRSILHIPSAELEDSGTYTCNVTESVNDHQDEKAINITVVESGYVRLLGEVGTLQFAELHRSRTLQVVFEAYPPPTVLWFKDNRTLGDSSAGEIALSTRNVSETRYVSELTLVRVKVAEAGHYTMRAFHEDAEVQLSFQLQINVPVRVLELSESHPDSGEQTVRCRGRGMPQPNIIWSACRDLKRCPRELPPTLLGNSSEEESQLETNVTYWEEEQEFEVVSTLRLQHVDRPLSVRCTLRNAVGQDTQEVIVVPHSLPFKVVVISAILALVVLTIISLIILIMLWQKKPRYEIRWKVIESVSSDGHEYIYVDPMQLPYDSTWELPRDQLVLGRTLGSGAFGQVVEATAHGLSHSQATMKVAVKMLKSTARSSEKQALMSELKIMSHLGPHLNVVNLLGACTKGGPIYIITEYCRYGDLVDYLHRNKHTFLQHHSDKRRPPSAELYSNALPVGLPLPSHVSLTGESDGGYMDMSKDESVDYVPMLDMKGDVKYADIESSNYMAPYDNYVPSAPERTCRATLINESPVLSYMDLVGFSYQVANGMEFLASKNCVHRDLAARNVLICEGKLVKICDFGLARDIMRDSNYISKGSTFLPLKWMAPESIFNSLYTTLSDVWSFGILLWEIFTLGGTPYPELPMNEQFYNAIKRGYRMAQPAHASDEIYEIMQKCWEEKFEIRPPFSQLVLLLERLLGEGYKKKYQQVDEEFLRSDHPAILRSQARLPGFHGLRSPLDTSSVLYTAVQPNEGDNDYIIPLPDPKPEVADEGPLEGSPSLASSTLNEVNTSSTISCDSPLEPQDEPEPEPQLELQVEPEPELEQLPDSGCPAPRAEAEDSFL

Row | SMILES | Smad 1/5/8 activity (BRE-luciferase activity) (Smad 1/5/8 activity) | level of phosphorylated Smad 1/5/8 expression [1] | protein levels of Id1 and Id3 (Id1 and Id3 protein) | inhibition of ca-alk6 activity (BRE-luciferase) [2] | inhibition of alk2 activity (alk2) | inhibition of alk3 activity (alk3) | inhibition of alk6 activity (alk6) | activity for AMP kinase (comparison) (AMP kinase) | also measured
1 | c1ccc2c(-c3cnn4cc(-c5ccc(N6CCNCC6)cc5)cnc34)ccnc2c1 [LDN, LDN-193189, reference compound] | significant decrease | decreased | decrease | very similar to that of DMH2 | effectively inhibits | effectively inhibits | effectively inhibits | less AMP kinse activity than Dorsomorphin | phosphorylated Smad 1/5/8 expression ([1]; A549 cells): decrease; cell growth (number of cells) (A549 cells [3]): more growth inhibition than DMH1; cell growth (number of cells) (H1299 cells [4]): more growth inhibition than DMH1; clonogenic growth (A549 cells [5]): inhibited more by DMH2 and LDN than DMH1; clonogenic growth (H1299 cells [6]): inhibited more by DMH2 and LDN than DMH1
2 | CC(C)Oc1ccc(-c2cnc3c(-c4ccnc5ccccc45)cnn3c2)cc1 [DMH1] | significant decrease | decreased | decrease | partially inhibited alk6 but not as effectively as DMH2 | inhibited | inhibited | negligible inhibitory effects | less activity | Id1, Id2, and Id3 expression (mRNA) [7]: significantly decreased; reduction of Id1 protein expression (comparison) (Id1 and Id3 protein; H1299 and A549 cells, 1 μM): greater reduction of Id1 in H1299 cells compared to A549 cells; inhibition of ca-alk3 activity (BRE-luciferase) [8]: significant inhibition; anchorage independent growth (A549 cells [9]): significantly reduced; anchorage independent growth (H1299 cells [10]): significantly reduced; cell death (percentage of cells taking up ethidium bromide) (A549 cells [11]): significant increase in cell death; activity for VEGF II (comparison) (VEGF II): less activity; activity for TGFβ receptor alk5 (comparison) (TGFβ receptor alk5): less activity; activity for platelet-derived growth factor receptor-β (comparison) [12]: less activity

From patent US9505763B2, “Cancer treatment using BMP inhibitor” (Vanderbilt University, priority 2011, dated 2016)
